These results are taken from patent publication EP4740932A2, “COSMETIC COMPOSITION FOR SKIN IMPROVEMENT AND PHARMACEUTICAL COMPOSITION FOR PREVENTING OR TREATING SKIN DAMAGE, EACH CONTAINING HONOKIOL AND POLYOL” (Cosmax, Inc., priority 2023, dated 2025).

Series [1] in a line: DPPH test of antioxidant activity. The class given is biochemical. Particulars: 10 and 100 ppm, room temperature, 30 minutes; compared to retinol. The protocol: It was confirmed by the DPPH test whether honokiol exerts antioxidant activity.
Specifically, the DPPH solution was treated with Ascorbic Acid (AA), retinol, and honokiol at 10 and 100 ppm, respectively, at room temperature for 30 minutes. The absorbance was measured at 517 nm to show antioxidant activity as the ratio of the decrease in absorbance to the control. At this time, ascorbic acid, an antioxidant, was used as a control group for determining the absorbance reduction ratio.
In general terms: DPPH is a stable violet radical that fades when it is reduced.

The subject of another series is FBN. The series is described as follows: qRT-PCR of fibronectin production factor in UVB-irradiated Hs68 cells. The class given is cell-based. The following applies: Hs68, UVB 25 mJ/cm^2, 1 ppm, 24 hours; compared with RA, EGCG, retinol. The procedure: (§1) Specifically, Hs68 cells, which are skin dermal layer cells, were irradiated with UVB (ultraviolet-B) having a 25 mJ/cm^2 intensity, and then treated with RA, EGCG, retinol, and honokiol, 1 ppm each, for 24 hours.
(§2) The mRNA expression levels of ELN1, a factor associated with elastin production promotion, and FBN, a factor associated with fibronectin production promotion, were then measured using qRT-PCR analysis, and the levels of actin expression from the UVB non-irradiated group were converted and compared.

A further series relates to HAS3. The experiment in a line: qRT-PCR of hyaluronic acid synthase factor in HaCaT cells. The class given is cell-based. The following applies: 24 hours. The protocol:
(§3) Specifically, HaCaT cells, which are skin stratum corneum cells, were treated with retinol and honokiol at 0.1 and 1 ppm, respectively, for 24 hours.
(§4) The mRNA expression levels of the AQP3 gene, which is a factor related to the migration of moisture present in the dermis, and the HAS3 gene, which is a factor related to hyaluronic acid synthase, were then measured through qRT-PCR analysis, and the β-actin expression levels were converted and compared.
(In qPCR the cycle at which signal appears reflects the starting amount.)

The nature of series [2]: Solvent selection: dissolving 5 wt % honokiol in water, BG, MCT. The class given is physicochemical. The source says: Honokiol is a poorly soluble component and has low solubility in water, so it has the property of being dissolved in an organic solvent. To stabilize the cosmetic composition including honokiol at a high concentration of 5 wt %, three types of solvents corresponding to water, Butylene Glycol (BG), and medium-chain triglyceride (MCT) oil were applied to confirm the result.

Series [3] can be described thus: HPLC potency analysis after storage. The class given is physicochemical. Particulars: harsh environments of low temperature, high temperature, and cycle. The protocol: Honokiol was dissolved in BG and MCT at a concentration of 5 wt %, and high-performance liquid chromatography (HPLC) was performed to observe whether precipitates were formed at 4°C, 25°C, 45°C, 50°C, and sunlight, and to analyze potency.

The test system of another series is filaggrin (FLG). The experiment in a line: qRT-PCR of filaggrin in HaCaT cells. The class given is cell-based. The following applies: 24 hours. The procedure:
as §3
(§5) Subsequently, through qRT-PCR analysis, the mRNA expression of filaggrin (FLG), a moisturizing component-related factor present in keratinocytes constituting the skin barrier, and the CLDN1 gene, a factor related to the binding of the skin barrier, were measured and compared based on the β-actin expression level.

Another series has as its system TSLP. The experiment in a line: qRT-PCR of inflammation-related factor in Poly I:C/IL-4 stimulated HaCaT cells. The class given is cell-based. Particulars: 10 µg/ml Poly I:C and 10 µg/ml IL-4, 1 ppm, 4 hours. The procedure:
Specifically, HaCaT cells, which are skin stratum corneum cells, were treated (+) with 10 µg/ml of Poly I:C and 10 µg/ml of IL-4 protein, which are inflammatory response inducing substances, and prepared as an experimental group in which 1 µM (Dexa) of dexamethasone (DEXA), retinol, and honokiol, which are […], were treated for 4 hours at 0.1 and 1 ppm, respectively. The untreated group (-) was prepared as a negative control.
Afterwards, the expression level of the TSLP gene, an inflammation-related factor expressed in skin keratinocytes, was measured through qRT-PCR analysis, converted based on the expression level of ectin, and compared.

In a further series the test system is Hs68 cells. The experiment in a line: MTT cytotoxicity evaluation on skin dermis cells. Particulars: Hs68 (skin dermis cells), 0.1, 0.5, 1 and 5 ppm, 24 hours, at concentrations of 5 ppm or less. The class given is cell-based. The procedure: (§6) Toxicity assessments of honokiol on skin epidermis and dermal cells were performed. Specifically, HaCaT cells, which are skin keratinocytes, and Hs68 cells, which are skin dermis cells, were cultured in a 96 well plate at a concentration of 2 X […] and cultured in a medium including FBS ([…]) and antibiotics (Antibiotic antibiotic) at 37°C and 5% CO2 for 24 hours, and then further cultured by treating the medium including only antibiotics with 0.1, 0.5, 1, and 5 ppm for each concentration on the next day. After 24 hours, the toxic concentration of the honokiol material on skin cells was determined by replacing it with medium containing MTT tetrazolum (Sigma-aldrich, St. Lous, USA) and by reacting at 37°C for 4 hours to evaluate the cellular metabolic activity.

A further series deals with COL1A1. The series is described as follows: qRT-PCR of collagen production promotion factor in UVB-irradiated Hs68 cells. The class given is cell-based. Particulars: Hs68, UVB 25 mJ/cm^2, 1 ppm, 24 hours; relative to UVB non-irradiated group; compared with RA, EGCG, retinol.
The next series relates to AQP3. The series is described as follows: qRT-PCR of moisture migration factor in HaCaT cells. The class given is cell-based. Particulars: 24 hours. The procedure: as §3, §4
The next series concerns MMP-1. The series is described as follows: qRT-PCR of collagen degradation enzyme factor in UVB-irradiated Hs68 cells. The class given is cell-based. The following applies: Hs68, UVB 25 mJ/cm^2, 1 ppm, 24 hours; relative to UVB non-irradiated group. The protocol: It was determined whether honokiol increases the amount of skin collagen. Specifically, Hs68 cells, which are skin dermal layer cells, were irradiated with 25 mJ/cm^2 intensity of UVB (ultraviolet B), and then treated with RA (retinoic acid), EGCG (epigallocatechin gallate), retinol, and honokiol at a concentration of 1 ppm for 24 hours, respectively.
The mRNA expression of the collagen production promotion factor COL1A1 and the collagen degradation enzyme factor MMP-1 gene was measured through qRT-PCR analysis and converted based on the actin expression, and the relative values for the expression of the UVB non-irradiated group were calculated and compared.
The collagen production amount was compared in the same manner as in Example 2-1, and the treatment sample was changed to a honokiol solution dissolved in RA (retinoic acid), retinol, DMSO (dimethyl sulfoxide), a honokiol solution dissolved in BG, and a honokiol solution dissolved in PG (propylene glycol).
In Example 2-1, a 5% (w/w) solution was prepared as a sample to confirm stability in a high concentration dissolved state, whereas a honokiol solution for treating cells was prepared at a concentration of 1 mg/ml, and the honokiol alone component treated in cells was performed to be 1 ppm.

A further series concerns HaCaT cells. The series is described as follows: MTT cytotoxicity evaluation on skin keratinocytes. The class given is cell-based. The following applies: HaCaT (skin stratum corneum cells), 0.1, 0.5, 1 and 5 ppm, 24 hours, at concentrations of 5 ppm or less. The protocol:
as §6

In the next series the test system is ELN1. The series is described as follows: qRT-PCR of elastin production factor in UVB-irradiated Hs68 cells. The class given is cell-based. The following applies: Hs68, UVB 25 mJ/cm^2, 1 ppm, 24 hours; compared with RA, EGCG, retinol. The procedure:
as §1, §2

Another series concerns CLDN1. The series is described as follows: qRT-PCR of skin barrier binding factor in HaCaT cells. The class given is cell-based. The following applies: 1 ppm, 24 hours, versus control group. The protocol:
as §3, §5

Setting [4] is: 0.1 and 1 ppm, overall versus retinol.

For the molecule `C=CCc1ccc(O)c(-c2ccc(O)c(CC=C)c2)c1` [honokiol], the “antioxidant activity (DPPH, decrease in absorbance at 517 nm)” value in [1] is on record as “remarkably high antioxidant activity compared to retinol”. For the same molecule, the “FBN mRNA expression level” value in the series with FBN was “highest expression level among the UV-irradiated groups but also showed a higher expression level than the UV-unirradiated group”. The figures for the “HAS3 mRNA expression level” value with HAS3 (setting [4]) and with HAS3 (1 ppm) were “higher overall expression than the retinol-treated group” and “significantly increased the expression of related genes”, respectively. For the same molecule, the solubility entry in [2] (5 wt % honokiol in BG) is given as “well soluble”; in [2] (5 wt % honokiol in MCT), “well soluble”; in [2] (5 wt % honokiol in water), “low”. Besides, in [3], the “potency maintenance (stability of the material)” value is “maintained its potency well”. The figures for the “FLG mRNA expression” value in the series on filaggrin (FLG) (setting [4]) and in the series with filaggrin (FLG) (1 ppm) were “higher expression than the retinol-treated group overall” and “significantly increased the expression of the FLG gene”, respectively. Besides, the “TSLP gene expression amount” value with TSLP is listed as “significantly reducing the expression amount of the TSLP gene”. The cytotoxicity result with Hs68 cells and with HaCaT cells was “did not cause cytotoxicity” in each case. Besides, the “COL1A1 mRNA expression (collagen production)” value with COL1A1 is “higher collagen production than the UVB-only irradiated group, and showed the highest collagen production among all UVB irradiated groups”. Moreover, the “AQP3 mRNA expression level” value in the series on AQP3 (setting [4]) is given as “higher overall expression than the retinol-treated group”; in the series with AQP3 (1 ppm) it was “significantly increased the expression of related genes”. For the same molecule, in the series on MMP-1, the “MMP-1 mRNA expression (collagen degrading enzyme production)” value is “lower amount of collagen degrading enzyme production than the UVB-only irradiation group”. The “ELN1 mRNA expression level” value with ELN1 is recorded as “highest expression level among the UV-irradiated groups but also showed a higher expression level than the UV-unirradiated group”. Besides, the “CLDN1 mRNA expression level” value with CLDN1 is on record as “significantly increased the expression level of the CLDN1 gene compared to that of the control group”.
